# Measurements as given in US8507550B2, “Treatment for altitudinal hypoxia” (AesRx LLC, priority 2010, dated 2013).
# Columns and labels:
# human subject = assay: hypoxia induced by moderate exercise at elevated altitude in a human subject; assay type: in vivo; conditions: 3,000 meters altitude, at rest 3 hours and after one hour bike; dosage giving P50 of 18 mm Hg; day 2 (treated) vs day 1
# Protocol: A 90 kg person in good health is transported from low elevation (<100 meters above sea level) to an altitude of 3,000 meters above sea level and kept at rest there for 3 hours. At that point, the subject is tested for respiration rate, heart rate and extremity O2. The subject is then put on a stationary exercise bike and allowed to ride the bike at a cadence of 40 rpm for one hour. The subject is again tested for respiration rate, heart rate and extremity O2. Then the subject is transported back to low elevation. […] The subject is kept at rest there for 3 hours, then tested for respiration rate, heart rate and extremity O2. The subject is then put on a stationary exercise bike and allowed to ride the bike at a cadence of 40 rpm for one hour. The subject is again tested for respiration rate, heart rate and extremity O2. The data from the two days are then compared.
# SCD Hb = conditions: sickle cell disease mouse model; Abdulmalik 2004; cited from earlier work
# rats = conditions: females; cited from earlier work
# [1] = tested on: sickle cell disease mouse model; conditions: Abdulmalik 2004; cited from earlier work
smiles,measurement,setting,value
"O=Cc1ccc(CO)o1 [5-HMF, 5-hydroxymethyl-2-furfural]","respiration rate, heart rate and extremity O2",human subject,closer to normal on day 2 than on day 1
same,P50 of SCD Hb,SCD Hb,lower P50 (left shift)
same,acute oral LD50,rats,2500 to 5000 mg/kg
same,in vivo protection against the lethal effects of hypoxia,[1],provides in vivo protection against the lethal effects of hypoxia
